The test system of test [1] is HCT116 cells. The test is described as follows: Cellular studies alone and in combination with CPT. The test is classed as cell-based. As to conditions: data not shown.
The target of test [2] is apurinic/apyrimidinic endonuclease (APE1) (Homo sapiens, UniProt P27695). The test is described as follows: APE1 counter-screen gel-based assay. The test is classed as biochemical. The settings on record: up to 100 μM.
The target of test [3] is T1, recombinant Tdp1 (Homo sapiens, UniProt Q9NUW8). The test is described as follows: Surface plasmon resonance direct binding. The settings on record: ten successive 2-fold dilutions from 100 μM.
T1 sequence (Q9NUW8 whole entry): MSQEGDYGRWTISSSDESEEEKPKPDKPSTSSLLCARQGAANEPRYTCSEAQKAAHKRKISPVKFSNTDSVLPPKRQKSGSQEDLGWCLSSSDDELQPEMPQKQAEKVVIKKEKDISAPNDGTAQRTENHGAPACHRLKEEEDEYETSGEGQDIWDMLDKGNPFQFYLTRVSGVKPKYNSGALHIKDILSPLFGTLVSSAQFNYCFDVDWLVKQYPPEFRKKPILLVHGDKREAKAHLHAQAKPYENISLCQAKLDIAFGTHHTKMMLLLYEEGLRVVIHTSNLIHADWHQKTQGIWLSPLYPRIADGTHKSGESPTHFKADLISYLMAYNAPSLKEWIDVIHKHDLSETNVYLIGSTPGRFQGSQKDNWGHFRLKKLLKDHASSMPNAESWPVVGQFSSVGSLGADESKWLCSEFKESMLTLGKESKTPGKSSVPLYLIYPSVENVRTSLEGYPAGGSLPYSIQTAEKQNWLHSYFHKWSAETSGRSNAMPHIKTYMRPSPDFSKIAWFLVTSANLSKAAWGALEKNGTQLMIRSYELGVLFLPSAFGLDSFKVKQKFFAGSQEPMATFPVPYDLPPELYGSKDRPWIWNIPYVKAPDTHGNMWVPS
Test [4] relates to CPT-induced Top1-DNA cleavage complexes. The test is described as follows: Immunocomplex of enzyme. As to conditions: data not shown. It is filed as cell-based.
The target of test [5] is Tdp1 H493R (SCAN1 mutant) (Homo sapiens, UniProt Q9NUW8, H493R). The test is described as follows: SCAN1 mutant gel assay of Tdp1-DNA covalent complex formation. The test is classed as biochemical. As to conditions: 100 nM H493R; DNA sequencing and protein SDS-PAGE gels.
Tdp1 H493R (SCAN1 mutant), sequence (Q9NUW8 whole entry H493R): as the sequence (Q9NUW8 whole entry) above, with H493R counted along it
Test [6] concerns the target T2, human Top1 (Homo sapiens, UniProt P11387).
T2 sequence (P11387 1-765): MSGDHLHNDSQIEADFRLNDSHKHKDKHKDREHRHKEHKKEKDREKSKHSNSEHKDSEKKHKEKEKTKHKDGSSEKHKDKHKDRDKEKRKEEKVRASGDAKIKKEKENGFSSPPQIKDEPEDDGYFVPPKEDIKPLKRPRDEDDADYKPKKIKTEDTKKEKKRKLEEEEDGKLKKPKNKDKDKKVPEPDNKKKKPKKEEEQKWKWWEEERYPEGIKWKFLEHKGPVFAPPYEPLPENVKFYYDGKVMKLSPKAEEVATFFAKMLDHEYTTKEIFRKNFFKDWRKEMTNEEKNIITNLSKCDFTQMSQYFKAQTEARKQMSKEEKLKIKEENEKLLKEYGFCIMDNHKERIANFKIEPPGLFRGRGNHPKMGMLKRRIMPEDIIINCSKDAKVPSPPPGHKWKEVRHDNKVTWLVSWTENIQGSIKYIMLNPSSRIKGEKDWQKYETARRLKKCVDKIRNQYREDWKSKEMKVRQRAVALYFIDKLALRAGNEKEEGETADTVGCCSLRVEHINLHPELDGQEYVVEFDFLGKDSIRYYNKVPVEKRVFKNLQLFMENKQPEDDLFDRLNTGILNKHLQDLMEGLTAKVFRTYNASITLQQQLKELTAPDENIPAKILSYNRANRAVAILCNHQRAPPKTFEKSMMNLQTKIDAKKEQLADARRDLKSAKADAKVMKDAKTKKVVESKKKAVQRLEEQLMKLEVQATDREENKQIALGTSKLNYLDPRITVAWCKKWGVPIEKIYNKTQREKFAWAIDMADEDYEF
The test is described as follows: Top1 DNA relaxation counter-screen assay. It is filed as biochemical. As to conditions: up to 100 μM.

Test [7] relates to Tdp1. As to conditions: NCI-DTP diversity set screen; ref [31]; cited from earlier work.
Test [8] addresses T1, recombinant Tdp1. The test is described as follows: Tdp1 gel-based assay. The test is classed as biochemical. The settings on record: single-stranded N14Y substrate.
In test [9] the test system is Tdp1. As to conditions: ref [28], [29]; cited from earlier work.

SMILES strings stand for the structures.

apurinic/apyrimidinic endonuclease (APE1), sequence (P27695 whole entry): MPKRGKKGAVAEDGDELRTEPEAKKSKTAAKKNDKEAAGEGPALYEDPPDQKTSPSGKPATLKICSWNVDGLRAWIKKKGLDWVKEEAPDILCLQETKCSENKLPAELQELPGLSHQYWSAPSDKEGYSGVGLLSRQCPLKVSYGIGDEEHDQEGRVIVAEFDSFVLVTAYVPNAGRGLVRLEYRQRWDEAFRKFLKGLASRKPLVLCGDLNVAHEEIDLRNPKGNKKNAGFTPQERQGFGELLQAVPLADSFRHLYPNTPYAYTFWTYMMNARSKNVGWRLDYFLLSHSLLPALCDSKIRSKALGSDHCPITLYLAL

On to `C[C@]12CC[C@H]3[C@@H](CCC4=CC(=O)CC[C@@]43C)[C@@H]1CC[C@@H]2C(=O)COS(=O)(=O)c1ccc(Br)cc1` [compound 1, 4-Pregnen-21-ol-3,20-dione-21-(4-bromobenzenesufonate)], for which the “effect in combination with camptothecin in HCT116 cells” value in test [1] is recorded as “only an additive effect”. The “activity by itself in HCT116 cells” value in test [1] (up to 25 μM) is recorded as “limited activity”. The “inhibition of APE1” value in test [2] was “No evidence for inhibition”. The “binding to surface-bound Tdp1 (SPR)” value in test [3] was “direct binding”. In test [4], the “enhancement of CPT-induced Top1-DNA cleavage complexes” value was “did not observe an enhancement”. Further, the “formation of Tdp1-DNA covalent complexes by H493R mutant” value in [5] was “concentration-dependent decrease”. In addition, the “inhibition of human Top1 (DNA relaxation)” value in [6] was “No evidence for inhibition”. Moreover, in [7], the “inhibitory activity against Tdp1 in high-throughput screen” value is on record as “low micromolar concentrations”.

Regarding `C[C@]12CC[C@H]3[C@@H](CCC4=CC(=O)CC[C@@]43C)[C@@H]1CC[C@@H]2C(=O)COS(C)(=O)=O` [compound 7], the “binding to surface-bound Tdp1 (SPR)” value in test [3] is given as “No interaction”. Also, the “Tdp1 inhibitory activity (in words)” value in test [8] is listed as “minimally active”.

As to `CC(=O)[C@H]1CC[C@H]2[C@@H]3CCC4=CC(=O)CC[C@]4(C)[C@H]3CC[C@]12C` [progesterone, reference compound], the “Tdp1 inhibitory activity (in words)” value in test [8] was “weakly active”.

With `[O]=[W](=[O])([O-])[O-]` [tungstate], the “concentration at which Tdp1 is inhibited” value in test [9] was “millimolar concentrations”.

Regarding `[O]=[V]([O-])([O-])[O-]` [vanadate], the “concentration at which Tdp1 is inhibited” value in test [9] is “millimolar concentrations”.

Values taken from publication PMC2784989 (Journal of medicinal chemistry, 2009).
